The experiment concerns BDF1 mice, P388 leukemia ip, median survival T/C. The experiment is described as follows: NCI In Vivo Anticancer Drug Screen. Data for tumor model P388 Leukemia (intraperitoneal) in B6D2F1 (BDF1) mice. The note with it: endpoint: median survival time, higher = longer survival. In short, it runs like this: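 Vehicle-dosed animals serve as the reference; survival of compound-dosed, tumour-implanted mice is divided by it.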

The mark [1] stands for this setting: dose: 25.0 mg/kg/injection, schedule: Q01DX009 (ip), vehicle: Klucel (hydroxypropylcellulose) (HPC).
Setting [2] is: dose: 50.0 mg/kg/injection, schedule: Q01DX009 (ip), vehicle: Klucel (hydroxypropylcellulose) (HPC).
The mark [3] stands for this setting: dose: 50.0 mg/kg/injection, schedule: Q04DX003 (ip), vehicle: Klucel (hydroxypropylcellulose) (HPC).
[4] abbreviates: dose: 100.0 mg/kg/injection, schedule: Q01DX009 (ip), vehicle: Klucel (hydroxypropylcellulose) (HPC).
Setting [5] is: dose: 100.0 mg/kg/injection, schedule: Q04DX003 (ip), vehicle: Klucel (hydroxypropylcellulose) (HPC).
[6] abbreviates: dose: 200.0 mg/kg/injection, schedule: Q04DX003 (ip), vehicle: Klucel (hydroxypropylcellulose) (HPC).
The mark [7] stands for this setting: dose: 100.0 mg/kg/injection, schedule: Q04DX003 (ip), vehicle: saline.
Where [8] appears, read: dose: 200.0 mg/kg/injection, schedule: Q04DX003 (ip), vehicle: saline.
[9] abbreviates: dose: 6.25 mg/kg/injection, schedule: Q01DX009 (ip), vehicle: Klucel (hydroxypropylcellulose) (HPC).
Where [10] appears, read: dose: 12.5 mg/kg/injection, schedule: Q01DX009 (ip), vehicle: Klucel (hydroxypropylcellulose) (HPC).

Molecules are shown by their SMILES. Where “and” joins values, the source holds several entries; their conditions need not be identical. Equal values may be shown once. Toxic doses and inconclusive results are not listed.

With `CC(=O)c1ccc(NC(=O)N(CCCl)N=O)cc1`, the T/C reads like this: (dose: 0.29 mg/kg/injection, schedule: Q04DX003 (ip), vehicle: Klucel (hydroxypropylcellulose) (HPC)) 118 % of control; (dose: 0.43 mg/kg/injection, schedule: Q04DX003 (ip), vehicle: Klucel (hydroxypropylcellulose) (HPC)) 113 % of control; (dose: 0.99 mg/kg/injection, schedule: Q04DX003 (ip), vehicle: saline) 150 % of control; (dose: 18.75 mg/kg/injection, schedule: Q04DX003 (ip), vehicle: Klucel (hydroxypropylcellulose) (HPC)) 218 % of control; (dose: 24.75 mg/kg/injection, schedule: Q04DX003 (ip), vehicle: Klucel (hydroxypropylcellulose) (HPC)) 204 % of control; (dose: 37.5 mg/kg/injection, schedule: Q04DX003 (ip), vehicle: Klucel (hydroxypropylcellulose) (HPC)) 236 % of control and 90 % of control. Also, the T/C is, setting by setting: (dose: 56.25 mg/kg/injection, schedule: Q04DX003 (ip), vehicle: Klucel (hydroxypropylcellulose) (HPC)) 109 % of control; (dose: 75.0 mg/kg/injection, schedule: Q04DX003 (ip), vehicle: Klucel (hydroxypropylcellulose) (HPC)) 122 % of control.

On to `CC1(CCNC2CCCCC2)Oc2ccccc2O1`, for which the T/C reads like this: (dose: 50.0 mg/kg/injection, schedule: Q04DX002 (ip), vehicle: Klucel (hydroxypropylcellulose) (HPC)) 99 % of control; (dose: 100.0 mg/kg/injection, schedule: Q04DX002 (ip), vehicle: Klucel (hydroxypropylcellulose) (HPC)) 101 % of control.

As to `CCCC(CCC)(C(N)=O)C(=O)O`, the T/C is, setting by setting: (dose: 50.0 mg/kg/injection, schedule: Q01DX001 (ip), vehicle: Klucel (hydroxypropylcellulose) (HPC)) 94 % of control; (dose: 100.0 mg/kg/injection, schedule: Q01DX001 (ip), vehicle: Klucel (hydroxypropylcellulose) (HPC)) 100 % of control; (dose: 200.0 mg/kg/injection, schedule: Q01DX001 (ip), vehicle: Klucel (hydroxypropylcellulose) (HPC)) 122 % of control.

With `O=C(CCl)N1CCc2ccccc21`, the T/C was 104 % of control under setting [1]; 90 % of control (dose: 25.0 mg/kg/injection, schedule: Q04DX003 (ip), vehicle: Klucel (hydroxypropylcellulose) (HPC)); 100 % of control under setting [2]; 100 % of control under setting [3]; 86 % of control under setting [4]; 95 % of control under setting [5].

Consider `CC(C)=CCNc1ncnc2c1ncn2C1OC(CO)C(O)C1O` (stereo not drawn), for which the T/C under setting [3] was 95 % of control; the T/C under setting [5] was 100 % of control; the T/C (dose: 100.0 mg/kg/injection, schedule: Q04DX003 (ip), vehicle: saline with Tween-80) is 104 % of control; the T/C under setting [6] is 95 % of control; the T/C (dose: 200.0 mg/kg/injection, schedule: Q04DX003 (ip), vehicle: saline with Tween-80) was 100 % of control.

Regarding `Nc1cccnc1`, the T/C is, setting by setting: (dose: 5.0 mg/kg/injection, schedule: Q01DX009 (ip), vehicle: saline) 100 % of control; (dose: 10.0 mg/kg/injection, schedule: Q01DX009 (ip), vehicle: saline) 110 % of control.

For the molecule `NC(=O)c1ccc(Cl)c(Cl)c1`, the T/C runs as follows: (dose: 100.0 mg/kg/injection, schedule: Q04DX003 (ip), vehicle: other) 116 % of control; (dose: 200.0 mg/kg/injection, schedule: Q04DX003 (ip), vehicle: other) 122 % of control.

As to `O=C(O)C1(C(=O)O)CC2CC=CCC2C1` (stereo not drawn), the T/C is 110 % of control under setting [7] and 120 % of control under setting [8].

For the molecule `O=C(Nc1ccc(NC(=O)Nc2ccc(C3=NCCCN3)cc2)cc1)Nc1ccc(C2=NCCCN2)cc1`, the T/C is, setting by setting: (dose: 8.3 mg/kg/injection, schedule: Q04DX003 (ip), vehicle: saline) 122 % of control; (dose: 12.0 mg/kg/injection, schedule: Q04DX003 (ip), vehicle: saline) 122 % of control; (dose: 19.0 mg/kg/injection, schedule: Q04DX003 (ip), vehicle: saline) 165 % of control; (dose: 29.0 mg/kg/injection, schedule: Q04DX003 (ip), vehicle: saline) 175 % of control; (dose: 65.0 mg/kg/injection, schedule: Q04DX003 (ip), vehicle: saline) 154 % of control; (dose: 95.0 mg/kg/injection, schedule: Q04DX003 (ip), vehicle: saline) 163 % of control.

With `CC1CC2=CC(=O)C=CC2(C)C2CCC3(C)C(O)CCC3C12` (stereo not drawn), the T/C by setting is: (dose: 1.56 mg/kg/injection, schedule: Q01DX009 (ip), vehicle: Klucel (hydroxypropylcellulose) (HPC)) 86 % of control; (dose: 3.12 mg/kg/injection, schedule: Q01DX009 (ip), vehicle: Klucel (hydroxypropylcellulose) (HPC)) 107 % of control; under setting [9], 99 % of control; under setting [1], 95 % of control; under setting [2], 91 % of control; (dose: 50.0 mg/kg/injection, schedule: Q01DX009 (ip), vehicle: saline) 90 % of control. For the same molecule, the T/C runs as follows: under setting [4], 95 % of control and 97 % of control; under setting [5], 91 % of control; (dose: 200.0 mg/kg/injection, schedule: Q01DX009 (ip), vehicle: Klucel (hydroxypropylcellulose) (HPC)) 96 % of control and 97 % of control; under setting [6], 95 % of control; (dose: 400.0 mg/kg/injection, schedule: Q01DX009 (ip), vehicle: Klucel (hydroxypropylcellulose) (HPC)) 86 % of control and 88 % of control; (dose: 400.0 mg/kg/injection, schedule: Q04DX003 (ip), vehicle: Klucel (hydroxypropylcellulose) (HPC)) 87 % of control.

For the molecule `OCC1OC(n2cnc3c(NO)ncnc32)C(O)C1O` (stereo not drawn), the T/C runs as follows: under setting [10], 108 % of control; under setting [4], 108 % of control.

Consider `CSCc1cccc(CO)c1`, for which the T/C reads like this: (dose: 100.0 mg/kg/injection, schedule: Q01DX009 (ip), vehicle: saline with Tween-80) 110 % of control; (dose: 200.0 mg/kg/injection, schedule: Q01DX009 (ip), vehicle: saline with Tween-80) 100 % of control; (dose: 400.0 mg/kg/injection, schedule: Q01DX009 (ip), vehicle: saline with Tween-80) 105 % of control.

Turning to `CC12CCCCC1C/C(=N/NC(N)=O)CC2` (stereo not drawn), the T/C was 100 % of control (dose: 5.0 mg/kg/injection, schedule: Q01DX001 (ip), vehicle: saline); 100 % of control (dose: 10.0 mg/kg/injection, schedule: Q01DX001 (ip), vehicle: saline); 100 % of control (dose: 20.0 mg/kg/injection, schedule: Q01DX001 (ip), vehicle: saline); 104 % of control (dose: 40.0 mg/kg/injection, schedule: Q01DX001 (ip), vehicle: saline).

For `CC(=O)OC1=CCC(C(C)(C)C)CC1` (stereo not drawn), the T/C (dose: 5.15 mg/kg/injection, schedule: Q04DX003 (ip), vehicle: saline) is 100 % of control; the T/C under setting [9] was 100 % of control; the T/C (dose: 10.31 mg/kg/injection, schedule: Q04DX003 (ip), vehicle: saline) was 90 % of control; the T/C under setting [10] is 100 % of control; the T/C (dose: 20.62 mg/kg/injection, schedule: Q04DX003 (ip), vehicle: saline) is 90 % of control; the T/C under setting [1] was 100 % of control. For the same molecule, the T/C (dose: 35.0 mg/kg/injection, schedule: Q01DX009 (ip), vehicle: Klucel (hydroxypropylcellulose) (HPC)) was 91 % of control and 100 % of control; the T/C (dose: 41.25 mg/kg/injection, schedule: Q04DX003 (ip), vehicle: Klucel (hydroxypropylcellulose) (HPC)) is 87 % of control; the T/C (dose: 55.0 mg/kg/injection, schedule: Q01DX009 (ip), vehicle: Klucel (hydroxypropylcellulose) (HPC)) is 100 % of control; the T/C (dose: 80.0 mg/kg/injection, schedule: Q01DX009 (ip), vehicle: Klucel (hydroxypropylcellulose) (HPC)) was 87 % of control.

In the case of `O.O=C(O)O.O=C(O)O.O=C(O)O.[Zr]`, the T/C (dose: 100.0 mg/kg/injection, schedule: Q01DX009 (ip), vehicle: saline) is 96 % of control; the T/C under setting [7] was 100 % of control; the T/C (dose: 200.0 mg/kg/injection, schedule: Q01DX009 (ip), vehicle: saline) is 96 % of control; the T/C under setting [8] was 100 % of control; the T/C (dose: 400.0 mg/kg/injection, schedule: Q01DX009 (ip), vehicle: saline) was 96 % of control; the T/C (dose: 400.0 mg/kg/injection, schedule: Q04DX003 (ip), vehicle: saline) is 95 % of control.

The values are drawn from PubChem BioAssay AID328 (DTP/NCI, 2004).
